# In ChEMBL document CHEMBL3108693, “Design, synthesis, and osteogenic activity of daidzein analogs on human mesenchymal stem cells” (2014):
# Active and inactive are the calls of the source. No cut-off for these calls is given here.
# What was measured:
# Assay type in all cases: functional
# MSC [1] = experiment: (§1) Induction of osteogenic activity in human MSC assessed as cell differentiation at 1 uM after 14 days by alizarin red staining-based spectrometry relative to vehicle-treated control
# MSC [2] = experiment: Induction of osteogenic activity in human MSC assessed as cell differentiation after 14 days by alizarin red staining-based spectrometry relative to vehicle-treated control
# MSC [3] = experiment: Induction of osteogenic activity in human MSC assessed as cell differentiation at 10 nM after 14 days by alizarin red staining-based spectrometry
# [4] = as §1
# MSC [5] = experiment: Induction of osteogenic activity in human MSC assessed as increase in Sp7 level at 1 uM after 14 days by quantitative RT-PCR analysis relative to control
# MSC [6] = experiment: Induction of osteogenic activity in human MSC assessed as increase in cbfa1 level at 1 uM after 14 days by quantitative RT-PCR analysis relative to control
# MSC [7] = experiment: Induction of osteogenic activity in human MSC assessed as cell differentiation at 1 uM after 7 days by alizarin red staining-based spectrometry relative to vehicle-treated control
# MSC [8] = experiment: Induction of osteogenic activity in human MSC assessed as increase in cFOS level at 1 uM after 14 days by quantitative RT-PCR analysis relative to control
# MSC [9] = experiment: Induction of osteogenic activity in human MSC assessed as increase in OP level at 1 uM after 14 days by quantitative RT-PCR analysis relative to control
# MSC [10] = experiment: Induction of osteogenic activity in human MSC assessed as increase in ON level at 1 uM after 14 days by quantitative RT-PCR analysis relative to control
# MSC [11] = experiment: Induction of osteogenic activity in human MSC assessed as increase in Cola1 level at 1 uM after 14 days by quantitative RT-PCR analysis relative to control
# MSC [12] = experiment: Induction of osteogenic activity in human MSC assessed as increase in IGF1 level at 1 uM after 14 days by quantitative RT-PCR analysis relative to control
# MSC [13] = experiment: Induction of osteogenic activity in human MSC assessed as increase in ALP level at 1 uM after 14 days by quantitative RT-PCR analysis relative to control
# MSC [14] = experiment: Induction of osteogenic activity in human MSC assessed as increase in Dlx5 level at 1 uM after 14 days by quantitative RT-PCR analysis relative to control
SMILES,Activity (MSC [2]),fold change (FC) [4],also measured
O=c1c(-c2ccc(O)cc2)coc2cc(O)ccc12,Dose-dependent effect,–,Activity (MSC [1]): Active
CC#C[C@]1(O)CC[C@H]2[C@@H]3CCc4cc(O)ccc4[C@H]3CC[C@@]21C,–,–,Activity (MSC [3]): Active
CN(C)CCOc1ccc2c(=O)c(-c3ccc(O)cc3)coc2c1,Dose-dependent effect,–,–
O=c1c(-c2ccc(O)cc2)coc2cc(OCCN3CCCCC3)ccc12,Dose-dependent effect,>2.4,–
O=c1c(-c2ccc(O)cc2)coc2cc(OCCN3CCCC3)ccc12,Dose-dependent effect,–,–
CCCCCCOc1ccc2c(=O)c(-c3ccc(O)cc3)coc2c1,Dose-dependent effect,1.3,–
CC1(C)CCc2c(ccc3c2OCC(c2ccc(O)cc2)C3)O1 (centres undefined),Dose-dependent effect,–,–
CCCOc1ccc2c(=O)c(-c3ccc(O)cc3)coc2c1,Dose-dependent effect,1.3,Activity (MSC [5]): Active; Activity (MSC [6]): inactive; Activity (MSC [7]): Active; Activity (MSC [8]): inactive; Activity (MSC [9]): Active; Activity (MSC [10]): inactive; Activity (MSC [11]): Active; Activity (MSC [12]): Active; Activity (MSC [13]): Active; Activity (MSC [14]): inactive
C=CCOc1ccc2c(=O)c(-c3ccc(O)cc3)coc2c1,Dose-dependent effect,1.3,Activity (MSC [7]): Active
CC(C)Oc1ccc2c(=O)c(-c3ccc(O)cc3)coc2c1,Dose-dependent effect,1.6,–
CCCCOc1ccc2c(=O)c(-c3ccc(O)cc3)coc2c1,Dose-dependent effect,1.3,–
CC1(C)C=Cc2c(ccc3c(=O)c(-c4ccc(O)cc4)coc23)O1,Dose-dependent effect,–,–
O=c1c(-c2ccc(O)cc2)coc2cc(OC3CCCC3)ccc12,Dose-dependent effect,1.3,Activity (MSC [7]): Active
CC1(C)C=Cc2cc3c(cc2O1)OCC(c1ccc(O)cc1)C3 (centres undefined),Dose-dependent effect,1.3,–
COc1ccc(NC(=O)c2ccc(OC)cc2OC)cc1,Dose-dependent effect,1.3,–
CCCCOc1ccc2c(c1)OCC(c1ccc(O)cc1)C2 (centres undefined),Dose-dependent effect,–,–
Cc1cc2c(ccc3c(=O)c(-c4ccc(O)cc4)coc32)o1,Dose-dependent effect,1.6,–
COc1ccc(C(=O)Nc2ccc(OCC(C)C)cc2)c(OC)c1,Dose-dependent effect,1.6,–
C#CCOc1ccc2c(=O)c(-c3ccc(O)cc3)coc2c1,Dose-dependent effect,1.6,–
COc1ccc(C(=O)Nc2ccc(O)cc2)c(OC)c1,Dose-dependent effect,1.3,–
CC1(C)C=Cc2c(ccc3c(=O)c(-c4ccc(B5OC(C)(C)C(C)(C)O5)cc4)coc23)O1,Dose-dependent effect,–,–
CC(C)COc1ccc2c(=O)c(-c3ccc(O)cc3)coc2c1,Dose-dependent effect,1.3,Activity (MSC [7]): Active
CCOc1ccc2c(=O)c(-c3ccc(O)cc3)coc2c1,Dose-dependent effect,1.6,–
CC1(C)CCc2c(ccc3c2OCC(c2ccc(O)cc2)C3=O)O1 (centres undefined),Dose-dependent effect,1.6,–
